Test results taken from ChEMBL document CHEMBL4680163, “Discovery of potent epidermal growth factor receptor (EGFR) degraders by proteolysis targeting chimera (PROTAC)” (Eur J Med Chem, 2020).
Activity calls are given as the source filed them. The calls are words filed in the database; no cut-off is given here.

Tests used:
HCC827 [1] = assay: Protac activity at E3 ubiquitin ligase/EGFR in human HCC827 cells assessed as increase in degradation of EGFR at 0.1 uM pretreated with (1-(6-(5-(4-(dimethylamino)piperidin-1-yl)pyridin-2-ylamino)-2-(4-fluorophenylamino)pyrido[3,4-d]pyrimidin-4-yl)piperidin-4-yl)methanol and incubated for 6 hrs followed by compound addition and measured after 32 hrs by Western blot analysis; assay type: cell-based
A549 [2] = assay: Antiproliferative activity against human A549 cells harboring EGFR assessed as reduction in cell viability incubated for 72 hrs by MTT assay; assay type: functional, cell-based; settings: A549, 72 h
HCC827 [3] = assay: Protac activity at E3 ubiquitin ligase/EGFR in human HCC827 cells assessed as increase in degradation of EGFR measured upto 96 hrs by Western blot analysis; assay type: cell-based; settings: time hrs <=96, TDE = time-dependent effect
HCC827 [4] = assay: Protac activity at E3 ubiquitin ligase/EGFR in human HCC827 cells assessed as increase in degradation of EGFR at 1 to 10 uM pretreated with MG-132 for 6 hrs followed by compound addition and measured after 30 hrs by Western blot analysis; assay type: cell-based; settings: dose 1-10 µM
HCC827 [5] = assay: Induction of cell cycle arrest in human HCC827 cells assessed as accumulation in G1 phase at 0.1 uM incubated for 32 hrs by PI staining based flow cytometry analysis (reference value: 50.48 %); assay type: functional
HCC827 [6] = assay: Induction of apoptosis in human HCC827 cells assessed as viable cells at 0.1 uM incubated for 32 hrs by annexin V-FITC and PI staining based flow cytometry analysis (reference value: 76.79 %); assay type: functional; settings: read-out: Activity
A549 [7] = assay: Protac activity at E3 ubiquitin ligase/EGFR in human A549 cells harboring wild type EGFR assessed as increase in degradation of EGFR at 0.1 to 10 uM incubated for 48 hrs by Western blot analysis; assay type: cell-based; settings: dose 0.1-10 µM
HCC827 [8] = assay: Induction of cell cycle arrest in human HCC827 cells assessed as accumulation in S phase at 0.1 uM incubated for 32 hrs by PI staining based flow cytometry analysis (reference value: 41.26 %); assay type: functional
HCC827 [9] = assay: Induction of apoptosis in human HCC827 cells assessed as necrotic cells at 0.1 uM incubated for 32 hrs by annexin V-FITC and PI staining based flow cytometry analysis (reference value: 6.68 %); assay type: functional
HCC827 [10] = assay: Induction of apoptosis in human HCC827 cells assessed as early apoptotic cells at 1 uM incubated for 32 hrs by annexin V-FITC and PI staining based flow cytometry analysis (reference value: 2.72%); assay type: functional
HCC827 [11] = assay: Antiproliferative activity against human HCC827 cells harboring EGFRDel19 mutant assessed as reduction in cell viability incubated for 72 hrs by MTT assay; assay type: functional, cell-based; settings: HCC827, 72 h
A-431 = assay: Antiproliferative activity against human A-431 cells harboring EGFR assessed as reduction in cell viability incubated for 72 hrs by MTT assay; assay type: functional, cell-based; settings: A-431, 72 h
HCC827 [12] = assay: Protac activity at E3 ubiquitin ligase/EGFR in human HCC827 cells assessed as increase in degradation of EGFR at 100 nM incubated for 96 hrs by Western blot analysis relative to control; assay type: cell-based
HCC827 [13] = assay: Induction of apoptosis in human HCC827 cells assessed as viable cells at 1 uM incubated for 32 hrs by annexin V-FITC and PI staining based flow cytometry analysis (reference value: 72.15 %); assay type: functional; settings: read-out: Activity
HCC827 [14] = assay: Induction of apoptosis in human HCC827 cells assessed as late apoptotic cells at 1 uM incubated for 32 hrs by annexin V-FITC and PI staining based flow cytometry analysis (reference value: 18.02%); assay type: functional
HCC827 [15] = assay: Induction of cell cycle arrest in human HCC827 cells assessed as accumulation in G2 phase at 0.1 uM incubated for 32 hrs by PI staining based flow cytometry analysis (reference value: 8.25 %); assay type: functional
HCC827 [16] = assay: (§1) Protac activity at E3 ubiquitin ligase/EGFR in human HCC827 cells assessed as increase in degradation of EGFR incubated for 48 hrs by Western blot analysis; assay type: cell-based
[17] = as §1; assay type: cell-based; settings: HCC827, 48 h
[18] = target: Epidermal growth factor receptor (Homo sapiens) (UniProt P00533); assay: Inhibition of EGFR in human HCC827 cells assessed as reduction in EGFR phosphorylation incubated for 36 hrs by Western blot analysis; assay type: cell-based; settings: dose 0.1-1 µM
Chain of Epidermal growth factor receptor (Homo sapiens) (P00533 whole entry): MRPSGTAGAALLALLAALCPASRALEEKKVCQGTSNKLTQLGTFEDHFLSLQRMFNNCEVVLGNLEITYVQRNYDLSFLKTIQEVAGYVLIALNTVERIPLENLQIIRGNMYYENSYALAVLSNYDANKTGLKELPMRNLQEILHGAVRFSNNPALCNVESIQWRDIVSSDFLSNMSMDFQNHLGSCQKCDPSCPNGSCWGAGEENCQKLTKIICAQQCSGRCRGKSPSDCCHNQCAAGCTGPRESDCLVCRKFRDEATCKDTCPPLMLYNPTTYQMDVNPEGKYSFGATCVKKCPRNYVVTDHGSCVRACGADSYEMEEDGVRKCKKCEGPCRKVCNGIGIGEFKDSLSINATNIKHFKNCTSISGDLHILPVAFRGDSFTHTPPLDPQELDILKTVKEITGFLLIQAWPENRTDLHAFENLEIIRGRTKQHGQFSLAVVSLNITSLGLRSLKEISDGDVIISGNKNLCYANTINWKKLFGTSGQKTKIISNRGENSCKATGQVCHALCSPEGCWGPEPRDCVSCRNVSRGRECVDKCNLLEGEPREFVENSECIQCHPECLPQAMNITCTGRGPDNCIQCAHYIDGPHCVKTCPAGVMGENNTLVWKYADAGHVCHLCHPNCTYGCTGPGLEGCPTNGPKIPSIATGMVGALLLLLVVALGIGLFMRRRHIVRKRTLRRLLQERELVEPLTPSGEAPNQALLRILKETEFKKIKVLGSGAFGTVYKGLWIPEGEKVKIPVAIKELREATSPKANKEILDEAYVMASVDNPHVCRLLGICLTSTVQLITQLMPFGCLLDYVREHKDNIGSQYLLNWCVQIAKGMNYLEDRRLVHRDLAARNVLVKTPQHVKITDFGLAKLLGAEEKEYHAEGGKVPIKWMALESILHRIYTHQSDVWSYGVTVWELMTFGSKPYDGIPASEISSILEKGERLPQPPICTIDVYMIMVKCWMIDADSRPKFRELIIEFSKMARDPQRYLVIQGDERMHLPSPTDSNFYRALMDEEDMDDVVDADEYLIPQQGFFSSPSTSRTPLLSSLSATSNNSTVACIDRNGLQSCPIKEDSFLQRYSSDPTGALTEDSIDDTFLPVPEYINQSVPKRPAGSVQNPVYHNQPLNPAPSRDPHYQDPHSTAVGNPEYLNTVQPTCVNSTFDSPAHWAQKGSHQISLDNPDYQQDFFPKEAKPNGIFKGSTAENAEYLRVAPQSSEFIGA

HCC827 [19] = assay: Induction of cell cycle arrest in human HCC827 cells assessed as accumulation in G2 phase at 1 uM incubated for 32 hrs by PI staining based flow cytometry analysis (reference value: 8.25 %); assay type: functional
HCC827 [20] = assay: Induction of apoptosis in human HCC827 cells assessed as necrotic cells at 1 uM incubated for 32 hrs by annexin V-FITC and PI staining based flow cytometry analysis (reference value: 7.12 %); assay type: functional
NCI-H1975 [21] = assay: Protac activity at E3 ubiquitin ligase/EGFR in human NCI-H1975 cells harboring EGFR T790M mutant assessed as increase in degradation of EGFR at 0.1 to 10 uM incubated for 48 hrs by Western blot analysis; assay type: cell-based; settings: dose 0.1-10 µM
HCC827 [22] = assay: Induction of apoptosis in human HCC827 cells assessed as late apoptotic cells at 0.1 uM incubated for 32 hrs by annexin V-FITC and PI staining based flow cytometry analysis (reference value: 14.23 %); assay type: functional
NCI-H1975 [23] = assay: Antiproliferative activity against human NCI-H1975 cells harboring EGFR L858/T790M mutant assessed as reduction in cell viability incubated for 72 hrs by MTT assay; assay type: functional, cell-based; settings: NCI-H1975, 72 h
HCC827 [24] = assay: Protac activity at E3 ubiquitin ligase/EGFR in human HCC827 cells assessed as increase in degradation of EGFR at 1 to 10 uM pretreated with MLN-4924 for 6 hrs followed by compound addition and measured after 30 hrs by Western blot analysis; assay type: cell-based; settings: dose 1-10 µM
HCC827 [25] = assay: Protac activity at E3 ubiquitin ligase/EGFR in human HCC827 cells assessed as increase in degradation of EGFR at 100 nM pretreated with lenalidomide for 2 hrs followed by compound addition and measured after 48 hrs by Western blot analysis; assay type: cell-based
HCC827 [26] = assay: Induction of cell cycle arrest in human HCC827 cells assessed as accumulation in S phase at 1 uM incubated for 32 hrs by PI staining based flow cytometry analysis (reference value: 41.26 %); assay type: functional
HCC827 [27] = assay: Induction of cell cycle arrest in human HCC827 cells assessed as accumulation in G1 phase at 1 uM incubated for 32 hrs by PI staining based flow cytometry analysis (reference value: 50.48 %); assay type: functional
HCC827 [28] = assay: Induction of apoptosis in human HCC827 cells assessed as early apoptotic cells at 0.1 uM incubated for 32 hrs by annexin V-FITC and PI staining based flow cytometry analysis (reference value: 2.31 %); assay type: functional
HCC827 [29] = assay: Protac activity at E3 ubiquitin ligase/EGFR in human HCC827 cells assessed as increase in degradation of EGFR at 100 nM pretreated with VHL-L for 5 hrs followed by compound addition and measured after 32 hrs by Western blot analysis; assay type: cell-based
HCC827 [30] = assay: Protac activity at E3 ubiquitin ligase/EGFR in human HCC827 cells assessed as increase in degradation of EGFR at 100 nM incubated for 72 hrs by Western blot analysis relative to control; assay type: cell-based

SMILES	Activity (HCC827 [1])	IC50 (A549 [2]) [µM]	Activity (HCC827 [3])	Activity (HCC827 [4])	Activity (HCC827 [5]) [%]	viability at 0.1 µM (HCC827 [6]) [%]	Activity (A549 [7])	Activity (HCC827 [8]) [%]	Activity (HCC827 [9]) [%]	Activity (HCC827 [10]) [%]	IC50 (HCC827 [11]) [nM]	IC50 (A-431) [µM]	viability at 1 µM (HCC827 [13]) [%]	Activity (HCC827 [14]) [%]	Activity (HCC827 [15]) [%]	Activity (HCC827 [16])	DC50 [17] [nM]	inhibition [18]	Activity (HCC827 [19]) [%]	Activity (HCC827 [20]) [%]	further results
O=C1CCC(N2Cc3c(NC(=O)CCCCCCCN4CCN(c5ccc(Nc6cc7c(N8CCC(CO)CC8)nc(Nc8ccc(F)cc8)nc7cn6)nc5)CC4)cccc3C2=O)C(=O)N1 (stereo not drawn)	inactive	> 10	Tde	inactive	82.95	59.5	Active	10.79	8.21	4.16	180	> 10	35.5	49.56	6.26	Dose-dependent effect	45.2	Dose-dependent effect	7.47	9.74	Emax (HCC827 [12]): 87%; Activity (NCI-H1975 [21]): Active; Activity (HCC827 [22]): 26.38%; IC50 (NCI-H1975 [23]): > 10 µM; Activity (HCC827 [24]): Active; Activity (HCC827 [25]): inactive; Activity (HCC827 [26]): 10.63%; Activity (HCC827 [27]): 81.89%; Activity (HCC827 [28]): 5.93%
Cc1ncsc1-c1ccc(CNC(=O)[C@@H]2C[C@@H](O)CN2C(=O)[C@@H](NC(=O)CCCCCCN2CCN(c3ccc(Nc4cc5c(N6CCC(CO)CC6)nc(Nc6ccc(F)cc6)nc5cn4)nc3)CC2)C(C)(C)C)cc1	inactive	> 10	Tde	inactive	81.94	59.7	Active	11.67	6.62	4.36	220	> 10	22.4	63.29	6.39	Dose-dependent effect	34.8	Dose-dependent effect	8.86	9.9	Activity (HCC827 [29]): inactive; Activity (NCI-H1975 [21]): Active; Activity (HCC827 [22]): 25.73%; IC50 (NCI-H1975 [23]): > 10 µM; Activity (HCC827 [24]): Active; Activity (HCC827 [26]): 7.99%; Emax (HCC827 [30]): 98%; Activity (HCC827 [27]): 83.15%; Activity (HCC827 [28]): 7.95%
